Experimental data: patent US20250009769A1, “USE OF LYSOPHOSPHATIDIC ACID (LPA) IN CONTROLLING PORCINE INFECTIOUS DIARRHEA” (SICHUAN AGRICULTURAL UNIVERSITY, priority 2023, published 2025)
Marks after values point to notes of the source that are not given here.

How the values were obtained:
[1] = system: ETEC; assay: Diarrhea rate and diarrhea index of weaned piglets after ETEC challenge, dietary 0.3% LPA (Example 1); format: in vivo, DLY weaned piglets
Experimental: (§1) 25-day-old DLY weaned piglets were selected, with an average weight of (7.24±0.07) kg.
(§2) In the experiment, 32 piglets were divided into 4 groups with 8 replicates in each group, and the experimental period was 21 d. […] Slaughtering and sampling were conducted on the morning of day 21 of the experiment.

[2] = system: ETEC; assay: Intestinal tissue morphology of piglets infected with ETEC, dietary 0.3% LPA (Example 1); format: in vivo, DLY weaned piglets; conditions: for Duodenum V/C ratio / Ileum V/C ratio / Jejunum V/C ratio: villus height/crypt depth
Experimental: as §1, §2
ETEC challenge reduced villus height and V/C in the duodenum and ileum (P<0.05), and increased crypt depth in the ileum (P<0.05). […] Furthermore, the LPA reduced the crypt depth and increased the villus height/crypt depth (V/C) ratio in the ileum of ETEC-challenged piglets (P<0.05).

[3] = system: ETEC; assay: Intestinal permeability of piglets infected with ETEC, dietary 0.3% LPA (Example 1); format: in vivo, DLY weaned piglets
Experimental: as §1, §2

[4] = system: ETEC; assay: Diarrhea rate caused by Escherichia coli in weaned piglets, dietary 0.2% LPA (Example 2); format: in vivo, DLY weaned piglets; conditions: ETEC + LPA group: 0.2% LPA in diet
Experimental: 21-day-old DLY weaned piglets were selected, with an average weight of (6.23±0.82) kg.
In the experiment, 24 piglets were divided into 3 groups, each group had 8 replicates, and the experimental period was 21 d. […] Slaughtering and sampling were conducted on the morning of day 21 of the experiment.

[5] = parameters: species or system DLY weaned piglets; conditions: in vivo
Experimental: as §1, §2

[6] = LPA + ETEC group: diet with 0.3% LPA, ETEC challenge on day 18
[7] = LPA group: diet with 0.3% LPA, saline instead of ETEC
[8] = LPA + ETEC group: 0.3% LPA, ETEC challenge

CCCCCCCC/C=C\CCCCCCCC(=O)OC[C@@H](O)COP(=O)([O-])[O-].[Na+].[Na+] [LPA, 1-oleoyl-sn-glycerol 3-phosphate sodium salt]
Diarrhea index [1, 6]: 0.75 ± 0.56^b
Diarrhea rate [1, 6]: 37.50 ± 27.99^b %
Diarrhea index [1, 7]: 0.00 ± 0.00^c
Diarrhea rate [1, 7]: 0.00 ± 0.00^c %
Duodenum crypt depth [2, 8]: 273.45 ± 9.78 ^ μm
Duodenum villus height [2, 8]: 452.55 ± 11.68^b μm
Ileum crypt depth [2, 8]: 170.08 ± 4.12^b μm
Ileum villus height [2, 8]: 378.37 ± 13.76^a μm
Jejunum crypt depth [2, 8]: 177.98 ± 6.30 ^ μm
Jejunum villus height [2, 8]: 360.56 ± 10.87 ^ μm
Duodenum V/C ratio [2, 8]: 1.65 ± 1.19^b
Ileum V/C ratio [2, 8]: 2.22 ± 3.34^b
Jejunum V/C ratio [2, 8]: 2.02 ± 1.73^
Duodenum crypt depth ([2]; LPA group: 0.3% LPA, no ETEC): 270.03 ± 8.13 μm
Duodenum villus height ([2]; LPA group: 0.3% LPA, no ETEC): 493.34 ± 12.43^a μm
Ileum crypt depth ([2]; LPA group: 0.3% LPA, no ETEC): 150.45 ± 4.89^b μm
Ileum villus height ([2]; LPA group: 0.3% LPA, no ETEC): 401.46 ± 13.45^a μm
Jejunum crypt depth ([2]; LPA group: 0.3% LPA, no ETEC): 160.98 ± 3.23 μm
Jejunum villus height ([2]; LPA group: 0.3% LPA, no ETEC): 377.28 ± 9.89 μm
Duodenum V/C ratio ([2]; LPA group: 0.3% LPA, no ETEC): 1.83 ± 1.53^a
Ileum V/C ratio ([2]; LPA group: 0.3% LPA, no ETEC): 2.67 ± 2.75^a
Jejunum V/C ratio ([2]; LPA group: 0.3% LPA, no ETEC): 2.34 ± 3.06
D-lactic acid [3, 8]: 1.53 ± 0.93^b mg/L
DAO [3, 8]: 335.62 ± 14.23^b pg/mL
Fluid accumulation rate [3, 8]: 1.42 ± 0.68^b
LPS [3, 8]: 49.13 ± 2.56^b ng/L
D-lactic acid ([3]; LPA group: 0.3% LPA, no ETEC): 1.69 ± 0.22^b mg/L
DAO ([3]; LPA group: 0.3% LPA, no ETEC): 330.43 ± 12.78^b pg/mL
Fluid accumulation rate ([3]; LPA group: 0.3% LPA, no ETEC): 1.32 ± 1.21^b
LPS ([3]; LPA group: 0.3% LPA, no ETEC): 48.23 ± 5.23^b ng/L
Diarrhea index ([4]; after challenge): 1.98^b
Diarrhea rate ([4]; after challenge): 33.56 ± 0.28^b %
Diarrhea index ([4]; before challenge): 1.68
Diarrhea rate ([4]; before challenge): 11.86 ± 0.15^b %
Impact on piglet growth performance [5]: no significant negative impact on piglet growth performance
